Results taken from the supplement of paper PMC8671470.
± gives the standard deviation of the averaged measurements.

What was measured:
[1] = system: HL-60; test: cell viability (% survival relative to DMSO control); higher = less cytotoxic; settings: 72 h
Summary of the method: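 HL-60 cells in RPMI 1640 with 10% FBS were rescreened against the full library on 384-well plates at five tenfold concentrations, 1–10,000 nM, in duplicate. Each screen was run with DMSO or 100 nM of one of three metabolic inhibitors, for 72 h at 37 °C, 5% CO2. Viability was read by CellTiter-Glo and normalised to DMSO and 10 μM proteasome-inhibitor wells. Where given, area under the curve came from four-parameter log-logistic fits (drc, PharmacoGx).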

[2] = system: MV4-11; test: cell viability (% survival relative to DMSO control, bortezomib = 0%); higher = less cytotoxic; settings: 72 h
Summary of the method: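 Fifteen myeloid leukaemia cell lines (10 AML, 5 CML) were seeded at a density titrated to the linear growth range. They went into 384-well plates with compounds pre-printed at 1, 10, 100, 1000 or 10000 nM in duplicate. After 72 h at 37 °C with 5% CO2, viability was read by CellTiter-Glo luminescence. Values are percent survival, with vehicle set to 100% and a 10 µM positive control to 0%, averaged over the duplicates.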

[3] = 0.001 µM, co-treatment: AZD3965 100 nM
[4] = 0.001 µM, co-treatment: DMSO vehicle
[5] = 0.001 µM, co-treatment: GSK2194069 100 nM
[6] = 0.001 µM, co-treatment: pictilisib 100 nM
[7] = 0.01 µM, co-treatment: AZD3965 100 nM
[8] = 0.01 µM, co-treatment: DMSO vehicle
[9] = 0.01 µM, co-treatment: GSK2194069 100 nM
[10] = 0.01 µM, co-treatment: pictilisib 100 nM
[11] = 0.1 µM, co-treatment: AZD3965 100 nM
[12] = 0.1 µM, co-treatment: DMSO vehicle
[13] = 0.1 µM, co-treatment: GSK2194069 100 nM
[14] = 0.1 µM, co-treatment: pictilisib 100 nM
[15] = 1 µM, co-treatment: AZD3965 100 nM
[16] = 1 µM, co-treatment: DMSO vehicle
[17] = 1 µM, co-treatment: GSK2194069 100 nM
[18] = 1 µM, co-treatment: pictilisib 100 nM
[19] = 10 µM, co-treatment: AZD3965 100 nM
[20] = 10 µM, co-treatment: DMSO vehicle
[21] = 10 µM, co-treatment: GSK2194069 100 nM
[22] = 10 µM, co-treatment: pictilisib 100 nM

Row | Compound | cell viability [1, 3] [%] | cell viability [1, 4] [%] | cell viability [1, 5] [%] | cell viability [1, 6] [%] | cell viability [1, 7] [%] | cell viability [1, 8] [%] | cell viability [1, 9] [%] | cell viability [1, 10] [%] | cell viability [1, 11] [%] | cell viability [1, 12] [%] | cell viability [1, 13] [%] | cell viability [1, 14] [%] | cell viability [1, 15] [%] | cell viability [1, 16] [%] | cell viability [1, 17] [%] | cell viability [1, 18] [%] | cell viability [1, 19] [%] | cell viability [1, 20] [%] | cell viability [1, 21] [%] | cell viability [1, 22] [%] | cell viability ([2]; 1 nM) [%] | cell viability ([2]; 10 nM) [%] | cell viability ([2]; 100 nM) [%] | cell viability ([2]; 1000 nM) [%] | cell viability ([2]; 10000 nM) [%]
1 | O=C(NNc1ccccc1)c1ccncc1 [PluriSln 1] | 101 ± 1.6 | 102 ± 3 | 103.4 ± 0.8 | 94.1 ± 5.3 | 101 ± 3.5 | 102 ± 6.3 | 103 ± 3.5 | 107 ± 11 | 96.2 ± 5.6 | 102 ± 1.2 | 95.8 ± 3.6 | 83.7 ± 21 | 110 ± 11 | 103 ± 1.5 | 104 ± 5.4 | 116 ± 2.9 | 36 ± 2 | 49.8 ± 4.2 | 91.3 ± 1 | 92.411 ± 0.013 | 92.1 | 99.2 | 99.3 | 109 | 89.4
2 | CC(C)c1nc(CN(C)C(=O)N[C@H](C(=O)N[C@@H](Cc2ccccc2)C[C@H](O)[C@H](Cc2ccccc2)NC(=O)OCc2cncs2)C(C)C)cs1 [Ritonavir] | 99.9 ± 2.7 | 101 ± 2.2 | 94.5 ± 6.6 | 105 ± 2 | 102 ± 1.6 | 103.3 ± 0.22 | 110 ± 17 | 101 ± 2.1 | 78.3 ± 26 | 94.5 ± 3.8 | 88 ± 24 | 97.5 ± 4.1 | 102 ± 3.5 | 87.4 ± 17 | 86.6 ± 30 | 93.9 ± 7.7 | 104 ± 3.9 | 105.8 ± 0.3 | 67.1 ± 3.1 | 99.2 ± 1.5 | 120 | 98.1 | 95.9 | 87.2 | 71.9
3 | O=C(O)c1cc(N=Nc2ccc(S(=O)(=O)Nc3ccccn3)cc2)ccc1O [Sulfasalazine] | 101.5 ± 0.52 | 101 ± 2.6 | 105 ± 4.2 | 107 ± 8.6 | 109 ± 3.5 | 101.7 ± 0.78 | 103 ± 3.4 | 103 ± 3.5 | 96 ± 2.6 | 98.9 ± 3 | 101 ± 1.2 | 93.57 ± 0.82 | 97.23 ± 0.95 | 100.2 ± 0.32 | 103 ± 1.9 | 92.3 ± 1.4 | 111 ± 8.6 | 104 ± 5.3 | 105 ± 5.2 | 112 ± 6.6 | 101 | 89.1 | 112 | 95.9 | 103
4 | O[C@H]1[C@H]2[C@H](O)CCCN2C[C@H]1O [Swainsonine] | 97.6 ± 3.9 | 99.37 ± 0.87 | 98.4 ± 2.5 | 101 ± 4.7 | 103.58 ± 0.00097 | 104 ± 3.2 | 110 ± 12 | 108 ± 11 | 97.5 ± 0.97 | 102 ± 3.9 | 97.2 ± 3 | 91.9 ± 9.1 | 98.4 ± 5.8 | 103 ± 0.51 | 90.3 ± 3.1 | 120 ± 25 | 102 ± 2.5 | 108 ± 13 | 106 ± 16 | 106 ± 11 | 102 | 113 | 87.2 | 69.8 | 69.3
5 | Cc1coc2c1C(=O)C(=O)c1c-2ccc2c1CCCC2(C)C [Tanshinone IIA] | 106 ± 3.5 | 100.1 ± 0.14 | 106.9 ± 0.96 | 95.5 ± 8.2 | 106 ± 1.5 | 105 ± 4.4 | 110.7 ± 0.96 | 111 ± 14 | 104 ± 12 | 101 ± 0.13 | 105 ± 5.8 | 107 ± 13 | 101 ± 4.3 | 99.49 ± 0.73 | 101.4 ± 0.95 | 109 ± 13 | 103 ± 4.8 | 99 ± 6.2 | 97.5 ± 4 | 109 ± 13 | 91.9 | 100 | 93.1 | 101 | 80.3
